This note sets out measurements from PubChem BioAssay AID256 (DTP/NCI, 2004).

The assay has as its system CD2F1 mice, L1210 leukemia ip, survival T/C. Briefly: NCI In Vivo Anticancer Drug Screen. Data for tumor model L1210 Leukemia (intraperitoneal) in CD2F1 (CDF1) mice. To be noted: higher = longer survival. An outline of the steps:
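Mice carrying a transplanted tumor received test compound or vehicle alone. The value is the measurement in the treated group divided by that in the vehicle-treated control group.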

Where [1] appears, read: endpoint: mean survival time, dose: 25.0 mg/kg/injection, schedule: Q04DX003 (ip), vehicle: saline.
The mark [2] stands for this setting: endpoint: mean survival time, dose: 50.0 mg/kg/injection, schedule: Q04DX003 (ip), vehicle: saline.
[3] abbreviates: endpoint: mean survival time, dose: 100.0 mg/kg/injection, schedule: Q04DX003 (ip), vehicle: saline.
Setting [4] is: endpoint: mean survival time, dose: 5.0 mg/kg/injection, schedule: Q01DX009 (ip), vehicle: saline with Tween-80.
Setting [5] is: endpoint: mean survival time, dose: 50.0 mg/kg/injection, schedule: Q01DX009 (ip), vehicle: saline with Tween-80.
Setting [6] is: endpoint: mean survival time, dose: 100.0 mg/kg/injection, schedule: Q01DX009 (ip), vehicle: saline with Tween-80.
Where [7] appears, read: endpoint: mean survival time, dose: 200.0 mg/kg/injection, schedule: Q01DX009 (ip), vehicle: saline with Tween-80.
Where [8] appears, read: endpoint: mean survival time, dose: 400.0 mg/kg/injection, schedule: Q01DX009 (ip), vehicle: saline with Tween-80.
The mark [9] stands for this setting: endpoint: mean survival time, dose: 100.0 mg/kg/injection, schedule: Q04DX003 (ip), vehicle: saline with Tween-80.
Setting [10] is: endpoint: mean survival time, dose: 200.0 mg/kg/injection, schedule: Q04DX003 (ip), vehicle: saline with Tween-80.
The mark [11] stands for this setting: endpoint: mean survival time, dose: 100.0 mg/kg/injection, schedule: Q01DX001 (ip), vehicle: saline with Tween-80.
The mark [12] stands for this setting: endpoint: mean survival time, dose: 200.0 mg/kg/injection, schedule: Q01DX001 (ip), vehicle: saline with Tween-80.

Several values for one entry are separate records, joined by “and”; a condition that tells them apart may be missing. Equal values may be shown once. Toxic doses and inconclusive results are not listed.

`O=C(Sc1cn(C2CC(O)C(CO)O2)c(=O)[nH]c1=O)c1ccc(N(CCCl)CCCl)cc1` (centres undefined): the T/C runs as follows: (endpoint: mean survival time, dose: 12.5 mg/kg/injection, schedule: Q01DX005 (ip), vehicle: water) 117 % of control; (endpoint: mean survival time, dose: 25.0 mg/kg/injection, schedule: Q01DX005 (ip), vehicle: water) 115 % of control; (endpoint: mean survival time, dose: 50.0 mg/kg/injection, schedule: Q01DX005 (ip), vehicle: water) 124 % of control; (endpoint: mean survival time, dose: 66.0 mg/kg/injection, schedule: Q01DX005 (ip), vehicle: water) 119 % of control; (endpoint: mean survival time, dose: 100.0 mg/kg/injection, schedule: Q01DX005 (ip), vehicle: water) 119 % of control; (endpoint: mean survival time, dose: 200.0 mg/kg/injection, schedule: Q01DX005 (ip), vehicle: water) 120 % of control.

Regarding `CN(C)CCCn1c2ccccc2c2cnccc21`, the T/C under setting [1] was 98 % of control, the T/C under setting [2] was 110 % of control and the T/C under setting [3] is 113 % of control.

On to `C[n+]1ccn(CC(=O)c2ccccc2)c1`, for which the T/C was 105 % of control (endpoint: mean survival time, dose: 25.0 mg/kg/injection, schedule: Q01DX009 (ip), vehicle: saline); 103 % of control (endpoint: mean survival time, dose: 50.0 mg/kg/injection, schedule: Q01DX009 (ip), vehicle: saline); 105 % of control (endpoint: mean survival time, dose: 100.0 mg/kg/injection, schedule: Q01DX009 (ip), vehicle: saline); 102 % of control under setting [3].

Consider `O=NN(CCCl)C(=O)Oc1cc(Cl)c(Cl)cc1Cl`, for which the T/C by setting is: (endpoint: median survival time, dose: 6.0 mg/kg/injection, schedule: Q01DX009 (ip), vehicle: Klucel (hydroxypropylcellulose) (HPC)) 106 % of control; (endpoint: median survival time, dose: 12.0 mg/kg/injection, schedule: Q01DX009 (ip), vehicle: Klucel (hydroxypropylcellulose) (HPC)) 124 % of control; (endpoint: median survival time, dose: 12.5 mg/kg/injection, schedule: Q01DX009 (ip), vehicle: Klucel (hydroxypropylcellulose) (HPC)) 109 % of control; (endpoint: median survival time, dose: 50.0 mg/kg/injection, schedule: Q01DX009 (ip), vehicle: Klucel (hydroxypropylcellulose) (HPC)) 195 % of control.

Turning to `CC(C)=CCC/C(C)=C/CNCCc1c[nH]c2ccccc12`, the T/C was 102 % of control under setting [4]; 98 % of control (endpoint: mean survival time, dose: 10.0 mg/kg/injection, schedule: Q01DX009 (ip), vehicle: saline with Tween-80); 100 % of control (endpoint: mean survival time, dose: 20.0 mg/kg/injection, schedule: Q01DX009 (ip), vehicle: saline with Tween-80).

Regarding `COC(=O)CC(CC(=O)c1ccccc1)c1ccccc1` (centres undefined), the T/C by setting is: (endpoint: mean survival time, dose: 50.0 mg/kg/injection, schedule: Q01DX009 (ip), vehicle: distilled water + Tween-80) 94 % of control; under setting [5], 95 % of control and 98 % of control; (endpoint: mean survival time, dose: 100.0 mg/kg/injection, schedule: Q01DX009 (ip), vehicle: distilled water + Tween-80) 90 % of control; under setting [6], 100 % of control and 106 % of control; (endpoint: mean survival time, dose: 200.0 mg/kg/injection, schedule: Q01DX009 (ip), vehicle: distilled water + Tween-80) 90 % of control; under setting [7], 97 % of control and 100 % of control. Further, the T/C (endpoint: mean survival time, dose: 400.0 mg/kg/injection, schedule: Q01DX009 (ip), vehicle: distilled water + Tween-80) was 90 % of control; the T/C under setting [8] is 97 % of control and 98 % of control.

In the case of `O=C(CCl)Nc1cc(Cl)c(Cl)cc1Cl`, the T/C under setting [6] was 97 % of control, the T/C under setting [7] was 94 % of control and the T/C under setting [8] is 102 % of control.

As for `OCc1ccc2[n+](c1)CCc1c-2[nH]c2ccccc12`, the T/C by setting is: (endpoint: mean survival time, dose: 12.5 mg/kg/injection, schedule: Q01DX001 (ip), vehicle: saline with Tween-80) 96 % of control; (endpoint: mean survival time, dose: 12.5 mg/kg/injection, schedule: Q01DX009 (ip), vehicle: saline with Tween-80) 98 % of control; (endpoint: mean survival time, dose: 25.0 mg/kg/injection, schedule: Q01DX001 (ip), vehicle: saline with Tween-80) 101 % of control; (endpoint: mean survival time, dose: 25.0 mg/kg/injection, schedule: Q01DX009 (ip), vehicle: saline with Tween-80) 94 % of control; (endpoint: mean survival time, dose: 50.0 mg/kg/injection, schedule: Q01DX001 (ip), vehicle: saline with Tween-80) 101 % of control; under setting [5], 100 % of control.

Take `O=C1C=C(Nc2ccccc2)CCC1`: the T/C under setting [6] is 94 % of control, the T/C under setting [7] is 100 % of control and the T/C under setting [8] is 97 % of control.

With `COC(=O)c1cccc(COc2ccc([N+](=O)[O-])cc2Cl)c1`, the T/C under setting [6] is 98 % of control; the T/C under setting [9] was 101 % of control; the T/C under setting [7] is 96 % of control; the T/C under setting [10] was 100 % of control; the T/C under setting [8] was 95 % of control; the T/C (endpoint: mean survival time, dose: 400.0 mg/kg/injection, schedule: Q04DX003 (ip), vehicle: saline with Tween-80) is 100 % of control.

With `Cc1cc(-n2cccc2)no1`, the T/C under setting [6] is 98 % of control, the T/C under setting [7] was 107 % of control and the T/C under setting [8] was 94 % of control.

`CCOC(=O)CC1(C)C(=O)NC(=O)N1C(C)=O` (centres undefined): the T/C was 105 % of control under setting [11]; 103 % of control under setting [6]; 97 % of control under setting [12]; 103 % of control under setting [7]; 94 % of control (endpoint: mean survival time, dose: 400.0 mg/kg/injection, schedule: Q01DX001 (ip), vehicle: saline with Tween-80); 116 % of control under setting [8].

For `O=C(C1CC1c1ccccc1)N1CCC(Nc2ccccc2)CC1` (centres undefined), the T/C was 102 % of control (endpoint: mean survival time, dose: 100.0 mg/kg/injection, schedule: Q04DX002 (ip), vehicle: other); 94 % of control (endpoint: mean survival time, dose: 200.0 mg/kg/injection, schedule: Q04DX002 (ip), vehicle: other); 90 % of control (endpoint: mean survival time, dose: 400.0 mg/kg/injection, schedule: Q04DX002 (ip), vehicle: other).

For `CC(=O)Nc1c(C#N)ncn1C1OC(CO)C(O)C1O` (centres undefined), the T/C was 104 % of control (endpoint: median survival time, dose: 12.5 mg/kg/injection, schedule: Q01DX005 (ip), vehicle: saline); 103 % of control (endpoint: median survival time, dose: 25.0 mg/kg/injection, schedule: Q01DX005 (ip), vehicle: saline); 92 % of control (endpoint: median survival time, dose: 50.0 mg/kg/injection, schedule: Q01DX005 (ip), vehicle: saline); 101 % of control (endpoint: median survival time, dose: 100.0 mg/kg/injection, schedule: Q01DX005 (ip), vehicle: saline); 100 % of control (endpoint: median survival time, dose: 200.0 mg/kg/injection, schedule: Q01DX005 (ip), vehicle: saline).

For `Nc1nc(N)c2cc(CNc3ccc(C(=O)NC(C(=O)O)C(=O)O)cc3)ccc2n1`, the T/C by setting is: (endpoint: mean survival time, dose: 0.8 mg/kg/injection, schedule: Q01DX009 (ip), vehicle: saline) 102 % of control; (endpoint: mean survival time, dose: 1.6 mg/kg/injection, schedule: Q01DX009 (ip), vehicle: saline) 86 % of control.

Turning to `CN(C)/N=C/c1cccc(CC(O)(C(F)(F)F)C(F)(F)F)n1`, the T/C is, setting by setting: under setting [5], 94 % of control; under setting [11], 105 % of control; under setting [6], 96 % of control; under setting [12], 100 % of control; under setting [7], 97 % of control.

`c1ccc(-c2nn(-c3ccccc3)[n+](-c3ccccc3)n2)cc1`: the T/C (endpoint: mean survival time, dose: 1.25 mg/kg/injection, schedule: Q01DX009 (ip), vehicle: saline with Tween-80) was 100 % of control; the T/C (endpoint: mean survival time, dose: 2.5 mg/kg/injection, schedule: Q01DX009 (ip), vehicle: saline with Tween-80) is 100 % of control; the T/C under setting [4] is 104 % of control; the T/C (endpoint: mean survival time, dose: 5.0 mg/kg/injection, schedule: Q04DX003 (ip), vehicle: saline) was 95 % of control.

For the molecule `C[N+](C)(C)c1cc2c(nn1)Nc1ccccc1S2`, the T/C (endpoint: mean survival time, dose: 3.12 mg/kg/injection, schedule: Q01DX009 (ip), vehicle: Klucel (hydroxypropylcellulose) (HPC)) was 97 % of control and 100 % of control; the T/C (endpoint: mean survival time, dose: 6.25 mg/kg/injection, schedule: Q01DX009 (ip), vehicle: Klucel (hydroxypropylcellulose) (HPC)) is 102 % of control and 103 % of control; the T/C (endpoint: mean survival time, dose: 12.5 mg/kg/injection, schedule: Q01DX009 (ip), vehicle: Klucel (hydroxypropylcellulose) (HPC)) was 87 % of control and 100 % of control; the T/C (endpoint: mean survival time, dose: 25.0 mg/kg/injection, schedule: Q01DX009 (ip), vehicle: Klucel (hydroxypropylcellulose) (HPC)) was 102 % of control and 103 % of control; the T/C under setting [1] was 111 % of control; the T/C (endpoint: mean survival time, dose: 50.0 mg/kg/injection, schedule: Q01DX009 (ip), vehicle: Klucel (hydroxypropylcellulose) (HPC)) was 94 % of control and 100 % of control. The T/C reads like this: under setting [2], 117 % of control; (endpoint: mean survival time, dose: 100.0 mg/kg/injection, schedule: Q01DX009 (ip), vehicle: Klucel (hydroxypropylcellulose) (HPC)) 96 % of control and 103 % of control; under setting [3], 109 % of control.

With `COC(=O)C1(N)CCCC1`, the T/C was 101 % of control under setting [1]; 100 % of control under setting [2]; 105 % of control under setting [9]; 113 % of control under setting [3]; 121 % of control (endpoint: mean survival time, dose: 200.0 mg/kg/injection, schedule: Q01DX009 (ip), vehicle: saline); 122 % of control under setting [10].
